The record followed here is patent US10975037B2 (priority 2018, dated 2021).

In general, inhibition refers to the change of the read-out against control, counted positive when it falls. As a reminder, the IC50 is the concentration needed to halve the response being measured. Low readings indicate greater potency in that assay, high ones weaker potency in that assay. In general, Kd refers to the free concentration of one partner at which half of the binding sites on the other are occupied at equilibrium, for simple one-to-one binding.

One assay addresses full-length human RORγt (Homo sapiens (Human), UniProt P51449). Briefly: RORγt (full-length human) reporter assay, conditions A or B, HEK293T cells. Format: cell-based. To be noted: for IC50: RORγt (FL) Reporter Assay A or B, IC50, HEK293T cells; for inhibition at 2 µM: 2 μM compound concentration; for inhibition at 3 µM: 3 μM compound concentration (footnote *). Here is the method:
RORγt (Full-Length Human) Reporter Assay:
(§1) HEK293T cells were plated at 35,000 per well in 96-well plate in medium of DMEM with 10% FBS. […] After overnight (16 to 20 hours) incubation, media were removed and cells were lysed with 50 L Glo Lysis Buffer (Promega) for 10-15 minutes followed by 10 minute incubation with 50 μL Dual Glo reagent (Promega) at room temperature. Firefly luciferase luminescence was measured using a BMG Pherastar plate reader. To each well, 50 μL Stop and Glo reagent was added and incubated for 10 minutes at room temperature. Renilla luminescence was measured using a BMG Pherastar plate reader. To calculate the effect of compounds on RORγt activity, firefly values were normalized against values of DMSO only and values of reference compound at saturating concentration, then further normalized against Renilla signals. IC50s were generated by plotting final Renilla normalized data against compound concentration and percent inhibition was calculated against DMSO control.
as §1, with “at 8750 cells” for “at 35,000”, “in 384-well” for “in 96-well”, “with 20” for “with 50”, “well, 20” for “well, 50”
A general note: In a reporter assay the amount or activity of a reporter protein is the signal.

Assay [1] has as its target human RORγt ligand binding domain (RORγt LBD) (Homo sapiens (Human), UniProt P51449). Briefly: RORγt ThermoFluor® assay (thermal shift binding). Here is the method:
This approach is applicable to a wide variety of systems, and rigorous in theoretical interpretation through quantitation of equilibrium binding constants (KD).
The shift in the melting point described as a ΔTm is proportional to the concentration and affinity of the ligand.
RORγt ThermoFluor® Assay Construct
Reference wells contained RORγt without compounds, and the assay conditions were as follows: • 0.065 mg/mL RORγt • 60 μM 1,8-ANS • 100 mM Hepes, pH 7.0 • 10 mM NaCl • 2.5 mM GSH • 0.002% Tween-20
Project compounds were arranged in a pre-dosed mother plate (Greiner Bio-one) wherein compounds are serially diluted in 100% DMSO by 1:2 from a high concentration of 10 mM over 12 columns within a series (column 12 is a reference well containing DMSO, no compound). The compounds were robotically dispensed directly into assay plates (1×=46 nL) using a Hummingbird capillary liquid handling instrument (Digilab). Following compound dispense, protein and dye in buffer was added to achieve the final assay volume of 3 μL, followed by 1 μL of silicone oil.
A general note: Differential scanning fluorimetry follows unfolding on heating by fluorescence.

Where [2] appears, read: read-out: ThermoFluor® Assay, Kd.
[3] abbreviates: HEK-293T, read-out: RORγt (FL) Reporter Assay A or B, % inhibition.

Structures can show the parent of a compound that is named as a salt. Where two headings read alike, the source gives them in different places.

Chain of human RORγt ligand binding domain (RORγt LBD) (P51449 other isoform, or with tags, fused parts or gaps): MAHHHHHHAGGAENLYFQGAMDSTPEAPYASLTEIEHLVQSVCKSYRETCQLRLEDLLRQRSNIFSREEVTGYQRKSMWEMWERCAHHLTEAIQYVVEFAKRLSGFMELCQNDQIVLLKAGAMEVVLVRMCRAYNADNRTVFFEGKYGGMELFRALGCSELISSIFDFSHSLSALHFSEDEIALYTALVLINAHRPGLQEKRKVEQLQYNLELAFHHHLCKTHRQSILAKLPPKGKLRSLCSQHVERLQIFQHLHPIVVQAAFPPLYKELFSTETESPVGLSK
Chain of full-length human RORγt (P51449 other isoform, or with tags, fused parts or gaps): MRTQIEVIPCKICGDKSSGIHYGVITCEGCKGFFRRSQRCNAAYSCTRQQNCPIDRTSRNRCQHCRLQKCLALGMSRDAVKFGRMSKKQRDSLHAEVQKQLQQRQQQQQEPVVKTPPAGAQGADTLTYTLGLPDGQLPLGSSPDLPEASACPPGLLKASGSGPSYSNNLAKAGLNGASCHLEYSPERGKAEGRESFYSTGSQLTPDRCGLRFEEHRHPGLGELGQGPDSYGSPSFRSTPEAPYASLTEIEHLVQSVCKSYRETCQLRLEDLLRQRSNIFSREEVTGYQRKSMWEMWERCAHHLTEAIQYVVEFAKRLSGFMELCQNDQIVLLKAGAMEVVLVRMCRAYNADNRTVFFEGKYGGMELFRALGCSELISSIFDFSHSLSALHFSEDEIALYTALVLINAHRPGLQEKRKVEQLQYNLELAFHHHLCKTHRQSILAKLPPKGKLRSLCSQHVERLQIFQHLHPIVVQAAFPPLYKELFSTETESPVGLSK

Take `CCn1nc(C(=O)NC[C@]2(O)CC[C@@H](S(C)(=O)=O)CC2)c(C)c1-c1ccc(CCC(F)(F)F)cc1OC(F)F` [Example 223, 5-(2-(Difluoromethoxy)-4-(3,3,3-trifluoropropyl)phenyl)-1-ethyl-N-(((1s,4s)-1-hydroxy-4-(methylsulfonyl)cyclohexyl)methyl)-4-methyl-1H-pyrazole-3-carboxamide]: the inhibition at […] on full-length human RORγt (HEK-293T, 0.33 μM compound concentration (footnote *****), read-out: RORγt (FL) Reporter Assay A or B, % inhibition) worked out at 68%. Inhibition against full-length human RORγt was half-maximal at 2.3 nM (IC50). Besides, the Kd in assay [1] (setting [2]) is 10 nM. As to `CCn1nc(C(=O)NC[C@]2(O)CC[C@@H](S(C)(=O)=O)CC2)c(Cl)c1-c1c(F)cc(C[C@@H](C)C(F)(F)F)cc1F` (single isomer, unassigned) [Example 199, 4-Chloro-5-(2,6-difluoro-4-((R*)-3,3,3-trifluoro-2-methylpropyl)phenyl)-1-ethyl-N-(((1s,4S)-1-hydroxy-4-(methylsulfonyl)cyclohexyl)methyl)-1H-pyrazole-3-carboxamide], the inhibition at 2 µM on full-length human RORγt (setting [3]) came out at 75%. The IC50 against full-length human RORγt came out at 58 nM. The Kd in assay [1] (ThermoFluor® Assay, Kd) was 14 nM. Turning to `COCCn1nc(C(=O)NC[C@H]2CC[C@H](S(C)(=O)=O)CC2)c(Cl)c1-c1ccc(CC(C)(C)C(F)(F)F)cc1OC` [Example 185, 4-Chloro-5-(2-methoxy-4-(3,3,3-trifluoro-2,2-dimethylpropyl)phenyl)-1-(2-methoxyethyl)-N-(((1r,4r)-4-(methylsulfonyl)cyclohexyl)methyl)-1H-pyrazole-3-carboxamide], at full-length human RORγt (setting [3]), the inhibition at 2 µM was 92%. On full-length human RORγt, the IC50 stood at 30 nM. Further, the Kd in assay [1] (setting [2]) was found to be 2.4 nM. For `CCn1nc(C(=O)NC[C@H]2CC[C@H](S(C)(=O)=O)CC2)c(Cl)c1-c1ccc(OC[C@@H]2CC2(F)F)cc1OC` (single isomer, unassigned) [Example 210, 4-Chloro-5-(4-(((S*)-2,2-difluorocyclopropyl)methoxy)-2-methoxyphenyl)-1-ethyl-N-(((1r,4R)-4-(methylsulfonyl)cyclohexyl)methyl)-1H-pyrazole-3-carboxamide], the inhibition at 2 µM at full-length human RORγt (setting [3]) came to 77%. Turning to `CCn1nc(C(=O)NC[C@]2(N)CC[C@H](S(C)(=O)=O)CC2)c(Cl)c1-c1ccc(CC(C)(C)C(F)(F)F)cc1OC(F)F` [Example 20, N-(((1r*,4r*)-1-Amino-4-(methylsulfonyl)cyclohexyl)methyl)-4-chloro-5-(2-(difluoromethoxy)-4-(3,3,3-trifluoro-2,2-dimethylpropyl)phenyl)-1-ethyl-1H-pyrazole-3-carboxamide 2,2,2-trifluoroacetic Acid Salt], the inhibition at 3 µM at full-length human RORγt (setting [3]) amounted to 15%. As to `CCn1nc(C(=O)NC[C@]2(O)CC[C@@H](S(C)(=O)=O)CC2)c(Cl)c1-c1ccc([C@@H](O)C2(C(F)(F)F)CC2)cc1OC(F)F` (single isomer, unassigned) [Example 111, 4-Chloro-5-(2-(difluoromethoxy)-4-((R*)-hydroxy(1-(trifluoromethyl)cyclopropyl)methyl)phenyl)-1-ethyl-N-(((1s,4S)-1-hydroxy-4-(methylsulfonyl)cyclohexyl)methyl)-1H-pyrazole-3-carboxamide], the inhibition at 1 µM on full-length human RORγt (HEK-293T, 1 μM compound concentration (footnote ***), read-out: RORγt (FL) Reporter Assay A or B, % inhibition) came out at 95%. Consider `CCn1nc(C(=O)NC[C@]2(O)CC[C@@H](S(C)(=O)=O)CC2)c(Cl)c1-c1ccc([C@@](C)(O)CCC(F)(F)F)cc1OC(F)F` (single isomer, unassigned) [Example 102, 4-Chloro-5-(2-(difluoromethoxy)-4-((S*)-5,5,5-trifluoro-2-hydroxypentan-2-yl)phenyl)-1-ethyl-N-(((1s,4R)-1-hydroxy-4-(methylsulfonyl)cyclohexyl)methyl)-1H-pyrazole-3-carboxamide], for which the inhibition at 3 µM at full-length human RORγt (setting [3]) was determined as 85%.
